# Test results: US20250136606A1, “MODULATORS OF TRPML, THEIR COMPOSITIONS AND METHODS OF USE” (Caraway Therapeutics, Inc., priority 2021, published 2025)
# pEC50: −log10 of the molar value. Where two headings read alike, the source gives them in different places.
# Experiments:
# Assay type in all cases: cell-based
# TRPML1 = TRPML1 (Homo sapiens, UniProt Q9GZU1); assay: Fluorescent TRPML1 assay (Fluo4-AM calcium fluorescence in doxycycline-induced HEK-293 Trex cells)
# How it was run: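 HEK-293 Trex cells stably expressing surface-directed mutant human TRPML1, induced with 0.5 µg/mL doxycycline overnight, were loaded with 1 µM Fluo4-AM and added to compound (6 nM–20 µM final, half-log steps, triplicate) in Ringer's with 10 mM calcium. Fluorescence ex 480/em 540; EC50 by non-linear regression versus plate controls.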
# TRPML2 = target: T1, TRPML2 (Homo sapiens, UniProt Q8IZK6); assay: Fluorescent TRPML2 assay (performed as for TRPML1, substituting the TRPML2 subtype)
# T1 construct: expressed in transfected cells
# T1 sequence (Q8IZK6 1-566): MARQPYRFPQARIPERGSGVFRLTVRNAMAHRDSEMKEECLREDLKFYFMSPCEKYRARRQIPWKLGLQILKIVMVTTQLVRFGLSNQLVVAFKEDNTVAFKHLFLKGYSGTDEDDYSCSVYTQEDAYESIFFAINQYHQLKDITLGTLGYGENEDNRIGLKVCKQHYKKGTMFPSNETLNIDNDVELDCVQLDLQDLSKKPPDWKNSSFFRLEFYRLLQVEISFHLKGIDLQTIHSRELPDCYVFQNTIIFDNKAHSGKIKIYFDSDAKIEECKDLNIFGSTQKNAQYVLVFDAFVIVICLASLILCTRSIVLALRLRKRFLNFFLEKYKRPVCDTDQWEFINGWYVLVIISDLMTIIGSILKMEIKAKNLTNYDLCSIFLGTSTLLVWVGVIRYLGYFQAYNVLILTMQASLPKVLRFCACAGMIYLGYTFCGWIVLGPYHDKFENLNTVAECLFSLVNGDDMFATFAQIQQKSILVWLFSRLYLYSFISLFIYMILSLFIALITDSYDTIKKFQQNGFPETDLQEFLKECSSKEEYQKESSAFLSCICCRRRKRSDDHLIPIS
# How it was run: (§1)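 Compound series (final 6 nM-20 μM, half-log, triplicate) were added to Fluo4-AM-loaded HEK-293 Trex cells in 10 mM calcium Ringer's, expressing the human TRPML subtype after doxycycline 0.5 ug/mL induction. Percent activity versus positive/negative controls from 480/540 nm fluorescence; EC50 by non-linear regression.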
# TRPML3 = target: T2, TRPML3 (Homo sapiens, UniProt Q8TDD5); assay: Fluorescent TRPML3 assay (performed as for TRPML1, substituting the TRPML3 subtype)
# T2 construct: expressed in transfected cells
# T2 sequence (Q8TDD5 1-553): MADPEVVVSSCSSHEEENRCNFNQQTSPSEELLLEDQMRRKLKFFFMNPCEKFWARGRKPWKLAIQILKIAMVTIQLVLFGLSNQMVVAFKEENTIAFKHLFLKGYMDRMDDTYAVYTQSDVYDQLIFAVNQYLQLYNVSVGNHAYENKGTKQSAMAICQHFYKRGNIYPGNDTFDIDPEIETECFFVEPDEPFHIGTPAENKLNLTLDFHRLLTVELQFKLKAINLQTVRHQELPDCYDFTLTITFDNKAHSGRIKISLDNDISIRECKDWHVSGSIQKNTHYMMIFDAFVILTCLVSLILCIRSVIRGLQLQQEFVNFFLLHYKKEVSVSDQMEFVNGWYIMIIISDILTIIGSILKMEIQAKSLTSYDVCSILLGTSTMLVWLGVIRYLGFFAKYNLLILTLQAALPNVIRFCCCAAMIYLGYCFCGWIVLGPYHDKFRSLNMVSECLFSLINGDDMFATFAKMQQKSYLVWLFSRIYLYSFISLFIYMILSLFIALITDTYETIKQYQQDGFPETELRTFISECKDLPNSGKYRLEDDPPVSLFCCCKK
# How it was run: as §1
# Sequence of TRPML1 (Q9GZU1 whole entry L15A/L16A/L577A/L578A, form open): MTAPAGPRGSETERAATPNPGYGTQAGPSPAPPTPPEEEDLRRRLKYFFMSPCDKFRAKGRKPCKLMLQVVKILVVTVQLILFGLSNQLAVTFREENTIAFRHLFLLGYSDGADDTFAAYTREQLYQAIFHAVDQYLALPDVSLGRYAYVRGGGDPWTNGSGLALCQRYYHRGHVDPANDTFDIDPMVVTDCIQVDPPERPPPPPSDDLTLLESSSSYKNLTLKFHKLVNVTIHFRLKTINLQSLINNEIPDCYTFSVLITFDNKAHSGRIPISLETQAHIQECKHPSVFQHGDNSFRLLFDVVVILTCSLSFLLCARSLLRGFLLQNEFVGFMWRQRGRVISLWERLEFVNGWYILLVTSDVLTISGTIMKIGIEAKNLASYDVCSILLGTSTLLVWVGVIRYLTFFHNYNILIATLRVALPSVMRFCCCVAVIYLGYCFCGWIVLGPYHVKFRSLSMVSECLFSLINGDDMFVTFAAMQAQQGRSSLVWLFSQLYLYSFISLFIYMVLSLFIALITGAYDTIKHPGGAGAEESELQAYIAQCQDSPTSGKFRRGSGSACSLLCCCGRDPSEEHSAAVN
pEC50 (TRPML1),pEC50 (TRPML2),pEC50 (TRPML3),pEC50 (TRPML1; fluorescent calcium assay),pEC50 (TRPML2; fluorescent calcium assay),pEC50 (TRPML3; fluorescent calcium assay),Structure (SMILES)
> 7.00,> 7.00,> 7.00,,,,"C[C@H]1CN(C(=O)OC(C)(C)C)CCN1c1ncnc2c1c(C1CCC1)cn2-c1cccc(F)c1 [Compound 641, tert-butyl (S)-4-(5-cyclobutyl-7-(3-fluorophenyl)-7H-pyrrolo[2,3-d]pyrimidin-4-yl)-3-methylpiperazine-1-carboxylate]"
,,,> 7.00,> 7.00,> 7.00,"CC(OC(=O)N1CCN(c2ncnc3c2c(-c2ccccc2F)cn3-c2cc(C#N)ccn2)[C@@H](C)C1)C(F)(F)F (stereo partly drawn) [Compound 348, 1,1,1-trifluoropropan-2-yl (3S)-4-(7-(4-cyanopyridin-2-yl)-5-(2-fluorophenyl)-7H-pyrrolo[2,3-d]pyrimidin-4-yl)-3-methylpiperazine-1-carboxylate]"
,,,6.30 to 7.00,5.70 to 6.30,6.30 to 7.00,"C[C@@H]1CN(c2ncnc3c2c(-c2ccccn2)cn3-c2cc(F)cc(F)c2)CCN1C(=O)OC(C)(C)C [Compound 215, tert-butyl (R)-4-(7-(3,5-difluorophenyl)-5-(pyridin-2-yl)-7H-pyrrolo[2,3-d]pyrimidin-4-yl)-2-methylpiperazine-1-carboxylate]"
,,,> 7.00,6.30 to 7.00,> 7.00,"C[C@@H]1CN(c2ncnc3c2c(C2CC2)cn3-c2cccc(Cl)c2F)CCN1C(=O)OC(C)(C)C [Compound 220, tert-butyl (R)-4-(7-(3-chloro-2-fluorophenyl)-5-cyclopropyl-7H-pyrrolo[2,3-d]pyrimidin-4-yl)-2-methylpiperazine-1-carboxylate]"
,,,> 7.00,> 7.00,> 7.00,"CCc1cn(-c2cc(C#N)ccn2)c2ncnc(N3CCN(C(=O)OC(C)(C)C)C[C@@H]3C)c12 [Compound 478, tert-butyl (S)-4-(7-(4-cyanopyridin-2-yl)-5-ethyl-7H-pyrrolo[2,3-d]pyrimidin-4-yl)-3-methylpiperazine-1-carboxylate]"
,,,> 7.00,> 7.00,> 7.00,"C[C@@H]1CN(c2ncnc3c2c(C2CC2)cn3-c2ccc(Cl)c(F)c2)CCN1C(=O)OC(C)(C)C [Compound 110, tert-butyl (R)-4-(7-(4-chloro-3-fluorophenyl)-5-cyclopropyl-7H-pyrrolo[2,3-d]pyrimidin-4-yl)-2-methylpiperazine-1-carboxylate]"
,,,> 7.00,6.30 to 7.00,> 7.00,"C[C@@H]1CN(c2ncnc3c2c(-c2cccnc2)cn3-c2cccc(Cl)c2)[C@@H](C)CN1C(=O)OC(C)(C)C [Compound 131, tert-butyl (2R,5S)-4-(7-(3-chlorophenyl)-5-(pyridin-3-yl)-7H-pyrrolo[2,3-d]pyrimidin-4-yl)-2,5-dimethylpiperazine-1-carboxylate]"
,,,6.30 to 7.00,5.70 to 6.30,6.30 to 7.00,"C[C@H]1CN(C(=O)OC(C)(C)C)CCN1c1ncnc2c1c(-c1ccncn1)cn2-c1cccc(Cl)c1 [Compound 115, tert-butyl (S)-4-(7-(3-chlorophenyl)-5-(pyrimidin-4-yl)-7H-pyrrolo[2,3-d]pyrimidin-4-yl)-3-methylpiperazine-1-carboxylate]"
,,,> 7.00,6.30 to 7.00,> 7.00,"C[C@H]1CN(C(=O)OC(C)(C)C)CCN1c1ncnc2c1c(C1CC1)cn2C12CCC(CC1)CC2 [Compound 364, tert-butyl (S)-4-(7-(bicyclo[2.2.2]octan-1-yl)-5-cyclopropyl-7H-pyrrolo[2,3-d]pyrimidin-4-yl)-3-methylpiperazine-1-carboxylate]"
> 7.00,5.70 to 6.30,> 7.00,,,,"C[C@@H]1CN(c2ncnc3c2c(OC(F)F)cn3-c2cc(Cl)ccn2)[C@@H](C)CN1C(=O)OC(C)(C)C [Compound 521, tert-butyl (2R,5S)-4-(7-(4-chloropyridin-2-yl)-5-(difluoromethoxy)-7H-pyrrolo[2,3-d]pyrimidin-4-yl)-2,5-dimethylpiperazine-1-carboxylate]"
> 7.00,> 7.00,6.30 to 7.00,,,,"C[C@@H]1CN(c2ncnc3c2c(C2CC2)cn3-c2cc(F)cc(F)c2)[C@@H](C)CN1C(=O)OC1(C)CC1 [Compound 655, 1-methylcyclopropyl (2R,5S)-4-(5-cyclopropyl-7-(3,5-difluorophenyl)-7H-pyrrolo[2,3-d]pyrimidin-4-yl)-2,5-dimethylpiperazine-1-carboxylate]"
,,,> 7.00,> 7.00,> 7.00,"C[C@H]1CN(C(=O)OC(C)(C)C)CCN1c1ncnc2c1c(N1CCC1)cn2-c1cccc(C#N)c1 [Compound 350, tert-butyl (S)-4-(5-(azetidin-1-yl)-7-(3-cyanophenyl)-7H-pyrrolo[2,3-d]pyrimidin-4-yl)-3-methylpiperazine-1-carboxylate]"
,,,> 7.00,5.70 to 6.30,> 7.00,"C[C@H]1CN(C(=O)OC(C)(C)C)CCN1c1ncnc2c1c(-c1ccccc1F)cn2-c1nccc(C#N)n1 [Compound 438, tert-butyl (S)-4-(7-(4-cyanopyrimidin-2-yl)-5-(2-fluorophenyl)-7H-pyrrolo[2,3-d]pyrimidin-4-yl)-3-methylpiperazine-1-carboxylate]"
> 7.00,< 5.70,6.30 to 7.00,,,,"C[C@@H]1CN(c2ncnc3c2c(C(F)(F)F)cn3-c2cc(F)ccn2)[C@@H](C)CN1C(=O)OC1(C)CC1 [Compound 659, 1-methylcyclopropyl (2R,5S)-4-(7-(4-fluoropyridin-2-yl)-5-(trifluoromethyl)-7H-pyrrolo[2,3-d]pyrimidin-4-yl)-2,5-dimethylpiperazine-1-carboxylate]"
,,,6.30 to 7.00,5.70 to 6.30,6.30 to 7.00,"Cc1nccnc1-c1cn(-c2cc(F)cc(F)c2)c2ncnc(N3CCN(C(=O)OC(C)(C)C(F)(F)F)[C@H](C)C3)c12 [Compound 243, 1,1,1-trifluoro-2-methylpropan-2-yl (R)-4-(7-(3,5-difluorophenyl)-5-(3-methylpyrazin-2-yl)-7H-pyrrolo[2,3-d]pyrimidin-4-yl)-2-methylpiperazine-1-carboxylate]"
6.30 to 7.00,< 5.70,> 7.00,,,,"C[C@@H]1CN(c2ncnc3c2c(C(F)F)cn3-c2cccc(Cl)c2)[C@@H](C)CN1C(=O)OC1(C)CC1 [Compound 608, 1-methylcyclopropyl (2R,5S)-4-(7-(3-chlorophenyl)-5-(difluoromethyl)-7H-pyrrolo[2,3-d]pyrimidin-4-yl)-2,5-dimethylpiperazine-1-carboxylate]"
,,,6.30 to 7.00,5.70 to 6.30,6.30 to 7.00,"C[C@H]1CN(C(=O)OC(C)(C)C)CCN1c1ncnc2c1c(-c1ncccn1)cn2-c1cccc(Cl)c1 [Compound 116, tert-butyl (S)-4-(7-(3-chlorophenyl)-5-(pyrimidin-2-yl)-7H-pyrrolo[2,3-d]pyrimidin-4-yl)-3-methylpiperazine-1-carboxylate]"
,,,6.30 to 7.00,6.30 to 7.00,6.30 to 7.00,"CC(C)(C)OC(=O)N1CCN(c2ncnc3c2c(-c2ccccn2)cn3-c2ccc(F)c(Cl)c2)CC1 [Compound 151, tert-butyl 4-(7-(3-chloro-4-fluorophenyl)-5-(pyridin-2-yl)-7H-pyrrolo[2,3-d]pyrimidin-4-yl)piperazine-1-carboxylate]"
> 7.00,> 7.00,> 7.00,,,,"Cc1cn(-c2cc(F)ccn2)c2ncnc(N3CCN(C(=O)OC(C)(C)C)C[C@@H]3C)c12 [Compound 681, tert-butyl (S)-4-(7-(4-fluoropyridin-2-yl)-5-methyl-7H-pyrrolo[2,3-d]pyrimidin-4-yl)-3-methylpiperazine-1-carboxylate]"
